Assay results from article PMC9582199, “Molecular architecture of the glycogen- committed PP1/PTG holoenzyme” (Nature Communications, 2022).
Where two headings read alike, the source gives them in different places.

What was measured:
PTG132-264 (CBM) = molecular target: T1, PTG132-264 (CBM) (Homo sapiens, UniProt Q9UQK1); assay: GCI binding kinetics of β-cyclodextrin on immobilized PTG; settings: 25 °C, 10 mM Hepes pH 7.2, 150 mM NaCl, 0.005% Tween 20, 1:3 dilutions from 500 µM
T1 sequence (Q9UQK1 132-264): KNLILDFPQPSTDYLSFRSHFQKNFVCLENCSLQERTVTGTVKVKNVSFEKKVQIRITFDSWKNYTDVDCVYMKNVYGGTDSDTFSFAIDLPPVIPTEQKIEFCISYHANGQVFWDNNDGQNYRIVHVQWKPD
Description: (§1) Grating-coupled interferometry (GCI) experiments were performed using the Creoptix WAVE system, a new generation instrument for the high-sensitivity kinetics and affinity analysis of label-free molecular interactions based on the waveguide interferometry technology. Waveguide interferometry exceeds the sensitivity levels of Surface Plasmon Resonance (SPR). […] GCI allows getting high resolution even at very low signal levels with low noise without artificial data averaging and reliable kinetics below 1 pg/mm^2. By the lower immobilization levels that are required, it avoids mass transport limitations. It covers the broadest kinetic range with the capability of analyzing of the ultra-fast transition times (i.e. 150 ms). It allows the reliable determination of off-rates of 5 s^–1 and even faster, enabling off-rate screening of weakly binding analytes. GCI can be applied to a wide range of pharmacological targets, with improved results on very low molecular weight compounds, to the dimensions of metal ions[56].
(§2) WAVE chips are composed of four channels or cells. Borate buffer (100 mM sodium borate pH 9.0, 1 M NaCl) was used for chip conditioning. […]
(§3) Supplementary Figure 3: Quantitative binding kinetics by GCI. […]

R. oryzae CBM21 = settings: cited from earlier work
Source text: (§4) The same two sugar-binding sites have been identified in the crystal structures of Rhizopus oryzae CBM21[13],[14]; site II is the primary binding site, while site I has been hypothesized to contribute to the binding of long-chain soluble polysaccharides and insoluble starch or to the relaxation and unwinding of helical amylose[15],[16].

GM CBM21 = settings: cited from earlier work
Source text: as §4

[1] = molecular target: T2, PTG CBM21 (residues 132–264) (Homo sapiens, UniProt Q9UQK1); assay: ITC titration of PTG CBM21 with β-cyclodextrin; type: binding; settings: 25 °C
T2 sequence (Q9UQK1 132-264): T1 sequence (Q9UQK1 132-264)
Description: ITC experiments were performed using an ITC 200 microcalorimeter (Malvern Panalytical, UK) at 25 °C with a stirring speed of 750 rpm in 25 mM Hepes pH 7.4, 0.2 M NaCl, 5% glycerol with 180 s separating the injections. β-cyclodextrin was dissolved in the running buffer and two datasets were collected, one with PTG CBM21 concentration at 100 μM and β-cyclodextrin at 3 mM with 40 injections of 1 µl, the other at 200 μM and 4 mM, respectively, with 80 injections of 1 µl. A blank run with only the buffer was carried out. Data analysis was done with ORIGIN subtracting the blank titrations fitting ‘one site’ and ‘two sites’ models.

PP1 = assay: Literature binding of GM constructs to PP1; settings: GM 64–105 (KD 114 nM, ref 12) compared with the corresponding PTG peptide
PP1 7-330 = molecular target: T3, PP1 7-330 (Homo sapiens, UniProt P62136); assay: GCI binding kinetics of PTG-derived peptides on captured PP1; settings: 25 °C, 6xHis-PP1 7-330 captured on NTA chip, peptide 1:2 dilutions from 300 nM
T3 construct: reversibly capturing 6xHis-tagged PP1^7-330; host or cells: E. coli BL21 (DE3) pGro7
T3 sequence (P62136 7-330): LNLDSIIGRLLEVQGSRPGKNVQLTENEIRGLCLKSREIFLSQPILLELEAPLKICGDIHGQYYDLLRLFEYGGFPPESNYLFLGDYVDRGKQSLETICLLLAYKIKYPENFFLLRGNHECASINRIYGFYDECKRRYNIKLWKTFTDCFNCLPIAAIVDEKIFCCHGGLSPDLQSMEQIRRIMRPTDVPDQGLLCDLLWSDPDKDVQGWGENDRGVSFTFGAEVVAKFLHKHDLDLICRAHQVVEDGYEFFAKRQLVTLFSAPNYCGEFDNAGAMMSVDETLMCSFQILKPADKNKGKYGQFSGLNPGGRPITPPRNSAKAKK
Description: as §1, §2, §3

[2] = 'two sites' model with stoichiometry fixed, average of two runs
[3] = 'two sites' model, average of two runs
[4] = 'two sites' model, average of two separate runs

## OC[C@H]1O[C@@H]2O[C@H]3[C@H](O)[C@@H](O)[C@@H](O[C@H]4[C@H](O)[C@@H](O)[C@@H](O[C@H]5[C@H](O)[C@@H](O)[C@@H](O[C@H]6[C@H](O)[C@@H](O)[C@@H](O[C@H]7[C@H](O)[C@@H](O)[C@@H](O[C@H]8[C@H](O)[C@@H](O)[C@@H](O[C@H]1[C@H](O)[C@H]2O)O[C@@H]8CO)O[C@@H]7CO)O[C@@H]6CO)O[C@@H]5CO)O[C@@H]4CO)O[C@@H]3CO [β-cyclodextrin]
PTG132-264 (CBM)
  Kd: 37 ± 7 µM
R. oryzae CBM21
  Kd: 5.1 µM
GM CBM21
  Kd: 8.2 µM
[1]; 25 mM Hepes pH 7.4, 0.2 M NaCl, 5% glycerol, 'one site' model, average of two separate runs, read-out: KD (KD1), 1 Site model
  Kd: 59 ± 5 µM
[1]; 'one site' model, average of two separate runs
  ΔS1, 1 Site model: -53 cal mol-1 K-1
[1]; 'one site' model, average of two separate runs, listed as b-cyclodextrin
  N (stoichiometry), 1 Site model: 1.09
[1]; 'two sites' model with stoichiometry fixed (N 1.0 each site), average of two runs, read-out: KD1, 2 Sites fixed model, first site
  Kd: 49 ± 4 µM
[1]; [2]
  ΔH1, 2 Sites fixed model, first site: -24.6 ± 0.7 kcal/mol
  ΔS1, 2 Sites fixed model, first site: -62 cal mol-1 K-1
  ΔS2, 2 Sites fixed model, second site: 21 cal mol-1 K-1
[1]; 'two sites' model with stoichiometry fixed, average of two runs, spread ± 154, site spurious or ancillary, read-out: KD2, 2 Sites fixed model, second site
  Kd: 346 µM
[1]; [3]
  ΔH2, 2 Sites model, second site: -16 ± 2 kcal/mol
  ΔS2, 2 Sites model, second site: -29 cal mol-1 K-1
[1]; 'two sites' model, average of two runs, paper calls second-site stoichiometry inconsistent
  N2, 2 Sites model, second site: 0.3
[1]; 'two sites' model, average of two runs, second site judged inconsistent, read-out: KD2, 2 Sites model, second site
  Kd: 3 ± 2 µM
[1]; [4]
  N1, 2 Sites model, first site: 1.06
  ΔH1, 2 Sites model, first site: -18 ± 4 kcal/mol
  ΔS1, 2 Sites model, first site: -40 cal mol-1 K-1
[1]; 'two sites' model, average of two separate runs, read-out: KD1, 2 Sites model, first site
  Kd: 63 ± 6 µM

## GM peptide 64–105: GM (PPP1R3A) peptide 64–105, corresponding to PTG 84–131; literature comparator (VSFADSFGFNLVSVKEFDCWELPSASTTFDLGTDIFHTEEYV; UniProt Q16821 64-105, looked up, fragment)
PP1
  times weaker PP1 binding than measured for PTG: ~15 times

## PTG81-132: extended PTG peptide, residues 81–132, including RVVF and SALK sequences; ProteoGenix SAS (AKKRVVFADSKGLSLTAIHVFSDLPEEPAWDLQFDLLDLNDISSALKHHEEK)
PP1 7-330
  KD by GCI for binding to PP1: almost halved
